Test results: PubChem BioAssay (NCI)
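A five-concentration, 48-hour dose response in 96-well plates underlies each endpoint, interpolated linearly between surrounding concentrations. At the GI50, growth is halved. At the TGI there is no net growth.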

Legend:
Assay in all cases: NCI anticancer screen, dose series, 48 h
U251 CNS = tested on: U251 CNS
COLO 205 colon = tested on: COLO 205 colon
OVCAR-3 ovarian = tested on: OVCAR-3 ovarian
SR leukemia = tested on: SR leukemia
OVCAR-4 ovarian = tested on: OVCAR-4 ovarian
IGROV1 ovarian = tested on: IGROV1 ovarian
SF-268 CNS = tested on: SF-268 CNS
DU-145 prostate = tested on: DU-145 prostate
T-47D breast = tested on: T-47D breast
BT-549 breast = tested on: BT-549 breast

Structure (SMILES) | TGI (U251 CNS) | TGI (COLO 205 colon) | TGI (OVCAR-3 ovarian) | TGI (SR leukemia) | TGI (OVCAR-4 ovarian) | TGI (IGROV1 ovarian) | TGI (SF-268 CNS) | GI50 (U251 CNS) | GI50 (DU-145 prostate) | TGI (DU-145 prostate) | GI50 (COLO 205 colon) | GI50 (OVCAR-3 ovarian) | GI50 (OVCAR-4 ovarian) | GI50 (T-47D breast) | TGI (T-47D breast) | GI50 (BT-549 breast) | TGI (BT-549 breast) | GI50 (IGROV1 ovarian) | GI50 (SF-268 CNS) | GI50 (SR leukemia)
CC(=O)N1CCC(=O)/C(=C/c2ccccc2)C1 | 34.3 µM | > 100 µM | 93.5 µM | 72.5 µM | 37.8 µM | 46.4 µM | 62.6 µM | – | – | – | – | – | – | – | – | – | – | – | – | –
COC(=O)c1cc2c(s1)-c1nccc3c1c(nc1ccccc13)C2=O | > 100 µM | > 100 µM | 56.2 µM | – | > 100 µM | > 100 µM | > 100 µM | 50.6 µM | > 100 µM | > 100 µM | 50.2 µM | 16.5 µM | > 100 µM | 62.8 µM | > 100 µM | > 100 µM | > 100 µM | 28.8 µM | 29.1 µM | –
C[Si](C)(C)/C(I)=C/CO | 36.7 µM | 31.1 µM | 73.1 µM | – | > 100 µM | > 100 µM | 94.1 µM | – | – | – | – | – | – | – | – | – | – | – | – | –
O=C(O)c1ccc(C(=O)O)c2c(C(=O)O)ccc(C(=O)O)c12 | > 100 µM | > 100 µM | > 100 µM | > 100 µM | > 100 µM | > 100 µM | > 100 µM | – | – | > 100 µM | – | – | – | – | > 100 µM | – | – | – | – | –
CS/C(=C(\S)c1ccccc1)c1ccccc1 | > 100 µM | > 100 µM | > 100 µM | > 100 µM | > 100 µM | > 100 µM | > 100 µM | – | – | – | – | – | – | – | – | – | – | – | – | –
CN(C)CCSc1cc(-c2ccccc2)c2ccccc2n1 | 22.5 µM | 4.85 µM | – | > 100 µM | – | 25.5 µM | 27.1 µM | – | – | 28.7 µM | – | – | – | – | 34.4 µM | – | 24.8 µM | – | – | –
Cc1ccc(S(=O)OCc2c(C)c(C)c(COS(=O)c3ccc(C)cc3)c(C)c2C)cc1 (stereo unspecified) | > 100 µM | > 100 µM | > 100 µM | > 100 µM | > 100 µM | > 100 µM | > 100 µM | – | – | – | – | – | – | – | – | – | – | – | – | –
O=C1CCC(=O)c2c1c(O)c1ccncc1c2O | 64.3 µM | 20.8 µM | 7.24 µM | 34.7 µM | 25.6 µM | 31.6 µM | – | – | – | – | – | – | – | – | – | – | – | – | – | –
CCc1c(Cl)c(C)cc(O)c1Cl | 29 µM | > 100 µM | > 100 µM | – | > 100 µM | > 100 µM | > 100 µM | – | – | > 100 µM | – | – | – | – | > 100 µM | – | 42.8 µM | – | – | –
CCOC(=O)c1ccc(N=Nc2cc(C(=O)OCC)ccc2O)cc1 | > 100 µM | > 100 µM | – | – | – | > 100 µM | > 100 µM | – | – | – | – | – | – | – | – | – | – | – | – | –
C[Si](C)(C)/C(Br)=C\CCN1C(=O)CCC1=O | > 100 µM | > 100 µM | > 100 µM | > 100 µM | > 100 µM | > 100 µM | > 100 µM | – | – | – | – | – | – | – | – | – | – | – | – | –
CC(C(=O)O)c1cccc(Oc2ccccc2)c1 (stereo unspecified) | > 100 µM | > 100 µM | > 100 µM | > 100 µM | – | > 100 µM | > 100 µM | > 100 µM | > 100 µM | > 100 µM | > 100 µM | > 100 µM | – | > 100 µM | > 100 µM | > 100 µM | > 100 µM | > 100 µM | > 100 µM | > 100 µM
O=[N+]([O-])c1cccc2ccc(N/N=C/c3ccccc3O)nc12 | > 100 µM | > 19.8 µM | > 100 µM | 7.03 µM | > 100 µM | – | > 100 µM | > 59.7 µM | > 23.8 µM | > 100 µM | 1.91 µM | 4.48 µM | > 100 µM | 1.07 µM | > 100 µM | > 100 µM | > 100 µM | – | > 100 µM | 0.148 µM
COC(=O)c1s/c(=N\C(=S)N(C)C)n(-c2ccc(Cl)cc2)c1C(=O)OC | > 100 µM | > 100 µM | > 100 µM | > 100 µM | > 100 µM | > 10 µM | > 100 µM | – | – | – | – | – | – | – | – | – | – | – | – | –
COc1ccc(/C(=C\C=C(C#N)C#N)Sc2nc3ccccc3s2)cc1 | 11 µM | 17.4 µM | 17.7 µM | – | – | 46.4 µM | 25.2 µM | 3.39 µM | – | – | 7.24 µM | 8.26 µM | – | 6.82 µM | 27 µM | 6.51 µM | 17.5 µM | 10 µM | 8.53 µM | –
COc1ccc(-c2nsc3c2NC(=O)CC3c2cccc(OC)c2)cc1 (stereo unspecified) | > 100 µM | 6.92 µM | 4.41 µM | – | > 100 µM | > 100 µM | > 100 µM | 1.83 µM | 2.59 µM | 19.1 µM | 0.801 µM | 0.705 µM | 7.4 µM | 0.871 µM | > 100 µM | 2.87 µM | > 100 µM | 2.18 µM | 4.53 µM | –
COC12OCCN(C)C1=CC(=O)C1=NNC(C)C12 (stereo unspecified) | > 100 µM | > 100 µM | > 100 µM | – | – | > 100 µM | – | – | – | – | – | – | – | – | – | – | – | – | – | –
C[C@]12CCC(=O)C=C1CC[C@@H]1C2CC[C@]2(C)Nc3[nH]ncc3CC12 (stereo partly specified) | > 100 µM | – | > 100 µM | – | > 100 µM | > 100 µM | – | – | – | – | – | – | – | – | – | – | – | – | – | –
[N-]=[N+]=N/C1=C/CCCCC(=O)C1 | – | > 100 µM | – | – | > 100 µM | > 100 µM | > 100 µM | – | – | – | – | – | – | – | – | – | – | – | – | –
Cn1cc(-c2csc(-c3c[nH]c4ccc(Br)cc34)n2)c2cnccc21 | – | – | 4.19 µM | – | 5.71 µM | – | 7.96 µM | – | 2.25 µM | 5.62 µM | – | 2.08 µM | 2.35 µM | – | – | 26.3 µM | > 100 µM | – | 2.83 µM | –
O=C1CCC/C=C\C[C@H]2C=CC(=O)/C2=C/C[C@H](C/C=C\CC(F)(F)F)O1 | 1.75 µM | 0.726 µM | 1.75 µM | – | 2.5 µM | 1.98 µM | 2.12 µM | 0.419 µM | 0.607 µM | 2.33 µM | 0.368 µM | 0.538 µM | 0.571 µM | 0.635 µM | 2.86 µM | 0.292 µM | 0.659 µM | 0.596 µM | 0.522 µM | –
S=c1[nH]c2c(Cl)c(Cl)c(Cl)c(Cl)c2[nH]1 | > 100 µM | 32.3 µM | 97.3 µM | – | 22.6 µM | 37.8 µM | 42.7 µM | – | – | > 100 µM | – | – | – | – | > 100 µM | – | 52.4 µM | – | – | –
C[C@H]1CN[C@@H]2[C@@H](C)[C@H]3[C@@H](C[C@H]4[C@@H]5CC[C@H]6C[C@@H](N)CC[C@]6(C)[C@H]5CC[C@]34C)O[C@@]2(O)C1 | 4.9 µM | 7.69 µM | 5.96 µM | – | 17.5 µM | 9.66 µM | 7.15 µM | – | – | 16.9 µM | – | – | – | – | 4.51 µM | – | 7.24 µM | – | – | –
